The conditions of this data set: in vivo.

Our source for the Infusion site swelling values is paper PMC11893401, “Pharmacokinetics and pharmacodynamics of insulin lispro 25 versus the original preparation (Humalog®25) in Chinese healthy male volunteers” (Frontiers in Pharmacology, 2025).

Experimental: Tolerability and safety were assessed by closely monitoring blood glucose levels and conducting other tests. All adverse events and severe adverse events (SAEs) were evaluated.
The safety of both formulations was evaluated through the assessment of laboratory examinations, 12-lead electrocardiogram, and vital signs.

For the substance “mixed protamine zinc recombinant human insulin lispro injection [listing 1 of 2 here]”, the Infusion site swelling is listed as 0 Number of Subjects(%).
The value for “mixed protamine zinc recombinant human insulin lispro injection [listing 2 of 2 here]” was 1(2.0) Number of Subjects(%).
